Like-named read-outs stand apart in the source and are kept apart here.
Columns and labels:
Eleocharis kuroguwai [1] = assay: Field transplant rice test, applied 0 DAT, EK; type: in vivo; conditions: 0 h, read-out: Percent Inhibition, EK; for inhibition at 375 g/ha: 0.375 Kg/Ha; for inhibition at 750 g/ha: 0.75 Kg/Ha; for inhibition at 1500 g/ha: 1.5 Kg/Ha; for inhibition at 3000 g/ha: 3.0 Kg/Ha
Method in brief: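 Field test in transplanted rice, herbicide applied as granules (2.5% or 5.0% w/w active) at transplanting (0 DAT). Rates from 3.0 kg/ha down to 0.375 kg/ha. Weed control observed weekly from 2 to 6 weeks after transplant, reported at 2, 4 and 6 WAT.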

Monochoria vaginalis = assay: Field transplant rice test, applied 9 DAT, MV; type: in vivo; conditions: for inhibition at 375 g/ha / inhibition at 750 g/ha / inhibition at 1500 g/ha / inhibition at 3000 g/ha: Pontederia vaginalis, 216 h, read-out: Percent Inhibition, MV; for inhibition at 375 g/ha: 0.375 Kg/Ha; for inhibition at 750 g/ha: 0.75 Kg/Ha; for inhibition at 1500 g/ha: 1.5 Kg/Ha; for inhibition at 3000 g/ha: 3.0 Kg/Ha
Method in brief: (§1)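 Field test in transplanted rice, herbicides applied as granules (2.5% or 5.0% w/w active) 9 days after transplant at 3.0 down to 0.375 kg/ha. Weed control observed weekly from 3 to 7 weeks after transplant.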

Echinochloa crus-galli = assay: Field transplant rice test, applied 9 DAT, EC; type: in vivo; conditions: Echinochloa crus-galli, 216 h, read-out: Percent Inhibition, EC; for inhibition at 375 g/ha: 0.375 Kg/Ha; for inhibition at 750 g/ha: 0.75 Kg/Ha; for inhibition at 1500 g/ha: 1.5 Kg/Ha; for inhibition at 3000 g/ha: 3.0 Kg/Ha
Method in brief: as §1

Eleocharis kuroguwai [2] = assay: Greenhouse transplant rice test, EK; type: in vivo; conditions: about 3 WAT, read-out: Percent Inhibition, EK
From the text: (§2) The test procedure used in this greenhouse test is as follows: Ray silt loam top soil containing about 0.05% by weight of krillium and sifted through a […] screen is fumigated about 5-10 days prior to use. Pots are then filled with said Ray silt loam soil to a level to allow for a 1 in. (2.54 cm) flooding depth. Rice plants (Bluebelle) of 2 to 3 weeks age are transplanted to the pots and bulbs or seeds of the test weeds also planted in the pots. The pots are then flooded and the test chemical applied to the surface of the flood water. The flood water is reduced to allow for germination of the Echinochloa crus-galli (barnyardgrass) seed and subsequently reflooded and maintained in that condition. Observations of percent inhibition using a scale of 0-100% are made about 3 weeks after transplant (WAT).
(§3) The test data in Table III for all compounds was obtained under identical test conditions. The weeds used in the tests herein have the following abbreviations in the tables: Echinochloa crus-galli (EC), Monochloria vaginalis (MV), Cyperus Serotinus (CS), Eleocharis Kuroguwai (EK) and Sagittaria trifolia (ST).

Cyperus serotinus = assay: Field transplant rice test, applied 9 DAT, CS; type: in vivo; conditions: for inhibition at 375 g/ha / inhibition at 750 g/ha / inhibition at 1500 g/ha / inhibition at 3000 g/ha: Cyperus serotinus, 216 h, read-out: Percent Inhibition, CS; for inhibition at 375 g/ha: 0.375 Kg/Ha; for inhibition at 750 g/ha: 0.75 Kg/Ha; for inhibition at 1500 g/ha: 1.5 Kg/Ha; for inhibition at 3000 g/ha: 3.0 Kg/Ha
Method in brief: as §1

Rice [3] = assay: Field transplant rice test, applied 9 DAT, rice injury; type: in vivo; conditions: for inhibition at 375 g/ha / inhibition at 750 g/ha / inhibition at 1500 g/ha / inhibition at 3000 g/ha: Oryza sativa, 216 h, read-out: Percent Inhibition, Rice; for inhibition at 375 g/ha: 0.375 Kg/Ha; for inhibition at 750 g/ha: 0.75 Kg/Ha; for inhibition at 1500 g/ha: 1.5 Kg/Ha; for inhibition at 3000 g/ha: 3.0 Kg/Ha
Method in brief: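 Field transplant rice; herbicides applied as granules (2.5% by weight active, 5.0% for one prior-art comparator) at 9 days after transplant. Rates from 3.0 kg/ha (2.67 lb/A) down to 0.375 kg/ha (0.34 lb/A). Crop injury observed weekly from 3 to 7 weeks after transplant.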

Rice [4] = assay: Greenhouse transplant rice test, rice injury; type: in vivo, Rice (Bluebelle); conditions: Oryza sativa, about 3 WAT, read-out: Percent Inhibition, Rice
From the text: as §2, §3

CCCCOc1cccc(CC)c1N(C)C(=O)CCl [Example 1, N-methyl-2'-n-butoxy-6'-ethyl-2-chloroacetanilide]
inhibition at 375 g/ha (Eleocharis kuroguwai [1]; 2 WAT): 73% | inhibition at 375 g/ha (Eleocharis kuroguwai [1]; 4 WAT): 40% | inhibition at 375 g/ha (Eleocharis kuroguwai [1]; 6 WAT): 3% | inhibition at 750 g/ha (Eleocharis kuroguwai [1]; 2 WAT): 82% | inhibition at 750 g/ha (Eleocharis kuroguwai [1]; 4 WAT): 75% | inhibition at 750 g/ha (Eleocharis kuroguwai [1]; 6 WAT): 50% | inhibition at 1500 g/ha (Eleocharis kuroguwai [1]; 2 WAT): 87% | inhibition at 1500 g/ha (Eleocharis kuroguwai [1]; 4 WAT): 83% | inhibition at 1500 g/ha (Eleocharis kuroguwai [1]; 6 WAT): 37% | inhibition at 3000 g/ha (Eleocharis kuroguwai [1]; 2 WAT): 97% | inhibition at 3000 g/ha (Eleocharis kuroguwai [1]; 4 WAT): 92% | inhibition at 3000 g/ha (Eleocharis kuroguwai [1]; 6 WAT): 65% | inhibition at 375 g/ha (Monochoria vaginalis; 3 WAT): 100% | inhibition at 375 g/ha (Monochoria vaginalis; 5 WAT): 100% | inhibition at 375 g/ha (Monochoria vaginalis; 7 WAT): 100% | inhibition at 750 g/ha (Monochoria vaginalis; 3 WAT): 100% | inhibition at 750 g/ha (Monochoria vaginalis; 5 WAT): 100% | inhibition at 750 g/ha (Monochoria vaginalis; 7 WAT): 100% | inhibition at 1500 g/ha (Monochoria vaginalis; 3 WAT): 100% | inhibition at 1500 g/ha (Monochoria vaginalis; 5 WAT): 100% | inhibition at 1500 g/ha (Monochoria vaginalis; 7 WAT): 100% | inhibition at 3000 g/ha (Monochoria vaginalis; 3 WAT): 100% | inhibition at 3000 g/ha (Monochoria vaginalis; 5 WAT): 100% | inhibition at 3000 g/ha (Monochoria vaginalis; 7 WAT): 100% | selectivity factor (GR15/GR85), MV in transplant rice (Monochoria vaginalis; between 3 WAT and 7 WAT): 16 | inhibition at 375 g/ha (Echinochloa crus-galli; 3 WAT): 90% | inhibition at 375 g/ha (Echinochloa crus-galli; 5 WAT): 88% | inhibition at 375 g/ha (Echinochloa crus-galli; 7 WAT): 78% | inhibition at 750 g/ha (Echinochloa crus-galli; 3 WAT): 100% | inhibition at 750 g/ha (Echinochloa crus-galli; 5 WAT): 100% | inhibition at 750 g/ha (Echinochloa crus-galli; 7 WAT): 100% | inhibition at 1500 g/ha (Echinochloa crus-galli; 3 WAT): 100% | inhibition at 1500 g/ha (Echinochloa crus-galli; 5 WAT): 98% | inhibition at 1500 g/ha (Echinochloa crus-galli; 7 WAT): 100% | inhibition at 3000 g/ha (Echinochloa crus-galli; 3 WAT): 100% | inhibition at 3000 g/ha (Echinochloa crus-galli; 5 WAT): 100% | inhibition at 3000 g/ha (Echinochloa crus-galli; 7 WAT): 100% | inhibition at 280 g/ha (Eleocharis kuroguwai [2]; 0.28 Kg/Ha): 100% | inhibition at 560 g/ha (Eleocharis kuroguwai [2]; 0.56 Kg/Ha): 100% | inhibition at 1120 g/ha (Eleocharis kuroguwai [2]; 1.12 Kg/Ha): 100% | inhibition at 2240 g/ha (Eleocharis kuroguwai [2]; 2.24 Kg/Ha): 100% | inhibition at 375 g/ha (Cyperus serotinus; 3 WAT): 100% | inhibition at 375 g/ha (Cyperus serotinus; 5 WAT): 98% | inhibition at 375 g/ha (Cyperus serotinus; 7 WAT): 97% | inhibition at 750 g/ha (Cyperus serotinus; 3 WAT): 93% | inhibition at 750 g/ha (Cyperus serotinus; 5 WAT): 93% | inhibition at 750 g/ha (Cyperus serotinus; 7 WAT): 95% | inhibition at 1500 g/ha (Cyperus serotinus; 3 WAT): 82% | inhibition at 1500 g/ha (Cyperus serotinus; 5 WAT): 100% | inhibition at 1500 g/ha (Cyperus serotinus; 7 WAT): 67% | inhibition at 3000 g/ha (Cyperus serotinus; 3 WAT): 100% | inhibition at 3000 g/ha (Cyperus serotinus; 5 WAT): 100% | inhibition at 3000 g/ha (Cyperus serotinus; 7 WAT): 100% | selectivity factor (GR15/GR85), CS in transplant rice (Cyperus serotinus; between 3 WAT and 7 WAT): 16 | inhibition at 375 g/ha (Rice [3]; 3 WAT): 13% | inhibition at 375 g/ha (Rice [3]; 5 WAT): 7% | inhibition at 375 g/ha (Rice [3]; 7 WAT): 7% | inhibition at 750 g/ha (Rice [3]; 3 WAT): 7% | inhibition at 750 g/ha (Rice [3]; 5 WAT): 2% | inhibition at 750 g/ha (Rice [3]; 7 WAT): 0% | inhibition at 1500 g/ha (Rice [3]; 3 WAT): 10% | inhibition at 1500 g/ha (Rice [3]; 5 WAT): 7% | inhibition at 1500 g/ha (Rice [3]; 7 WAT): 5% | inhibition at 3000 g/ha (Rice [3]; 3 WAT): 15% | inhibition at 3000 g/ha (Rice [3]; 5 WAT): 15% | inhibition at 3000 g/ha (Rice [3]; 7 WAT): 10% | rate at which safety in rice is maintained (Rice [3]; maximum test rate): ≥ 3.0 kg/ha | inhibition at 280 g/ha (Rice [4]; 0.28 Kg/Ha): 5% | inhibition at 560 g/ha (Rice [4]; 0.56 Kg/Ha): 0% | inhibition at 1120 g/ha (Rice [4]; 1.12 Kg/Ha): 15% | inhibition at 2240 g/ha (Rice [4]; 2.24 Kg/Ha): 20%

From patent publication US4345938A, “Herbicidal 2-haloacetanilides” (Monsanto Company, priority 1980, dated 1982)
